A short description of the data set: Drug release rate test of pharmaceutical composition (dialysis bag in PBS, HPLC). It counts as physicochemical. The following applies: 37° C.; for drug release rate: gentamicin 50 mg, 200 ml PBS. The method, then: In this test, a total of 3 ml solutions of the first and second mixtures (the weight ratio of sodium alginate:tricalcium phosphate:methylcellulose:sodium hyaluronate:calcium chloride was 36:36:15:80:20) and 50 mg of gentamicin were mixed to prepare a pharmaceutical composition containing gentamicin to be an experimental group. Then, the pharmaceutical composition containing gentamicin was placed in a dialysis bag. At the same time, 50 mg of gentamicin was dissolved in 3 ml of water as a control group.
Next, two 500 ml beaker were respectively added with 200 ml of phosphate buffered saline (PBS) solution. The prepared solutions of the experimental group and control group were respectively placed in dialysis bags, which were then placed in the PBS solutions. After that, the beakers, containing the dialysis bag and the PBS solution, were slightly shaken at 37° C. to allow the release of the drug from the dialysis bag to the PBS solution. In the drug release period, the PBS solution of the experimental and control groups are sampled at 15 minutes, 30 minutes, 45 minutes, 60 minutes, 75 minutes, 90 minutes, 105 minutes, 120 minutes, 150 minutes, 180 minutes, 1 day, 2 days, 3 days, 4 days, 5 days, 6 days, and 7 days, from the time start shaking. The sampled volume of the PBS solutions in beakers was 1 mL, and 1 mL of fresh PBS solution was added back to the sampled beakers. The concentrations of the gentamicin released in the PBS solution from the dialysis bag were analyzed by high performance liquid chromatography (HPLC).

On to gentamicin, for which the “cumulative release amount of the gentamicin released in the PBS solution” value (PBS, in less than 30 hours) is approximately 100%. The drug release rate entry (within 180 hours, relative to experimental group) was “much faster” and the drug release rate result (within the first 3 hours) is on record as “much faster”.
